Columns and labels:
Test in all cases: relative viability (nuclei count vs DMSO), 5 days (fraction); higher = more cells survive
201T = test system: 201T
Outline: (§1)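 Relative viability is defined as nuclei in treated wells over nuclei in vehicle wells. Duplicate plates were run and medians reported. Lung cancer cell lines in 1536-well plates were dosed by pin tool one day after seeding, with one drug or with a fixed anchor-drug dose plus five library-drug doses (not always all listed) in √10 steps, and nuclei were counted after 5 days.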

EPLC-272H = test system: EPLC-272H
Outline: as §1

H3255 = test system: H3255
Outline: as §1

LCLC-103H = test system: LCLC-103H
Outline: as §1

LOU-NH91 = test system: LOU-NH91
Outline: as §1

NCI-H1355 = test system: NCI-H1355
Outline: as §1

NCI-H1651 = test system: NCI-H1651
Outline: as §1

NCI-H1666 = test system: NCI-H1666
Outline: as §1

NCI-H1734 = test system: NCI-H1734
Outline: as §1

NCI-H1792 = test system: NCI-H1792
Outline: as §1

NCI-H1793 = test system: NCI-H1793
Outline: as §1

NCI-H1915 = test system: NCI-H1915
Outline: as §1

NCI-H1944 = test system: NCI-H1944
Outline: as §1

NCI-H1975 = test system: NCI-H1975
Outline: as §1

NCI-H2023 = test system: NCI-H2023
Outline: as §1

NCI-H2342 = test system: NCI-H2342
Outline: as §1

NCI-H2405 = test system: NCI-H2405
Outline: as §1

NCI-H441 = test system: NCI-H441
Outline: as §1

NCI-H647 = test system: NCI-H647
Outline: as §1

RERF-LC-KJ = test system: RERF-LC-KJ
Outline: as §1

SK-LU-1 = test system: SK-LU-1
Outline: as §1

UMC-11 = test system: UMC-11
Outline: as §1

COCC1(CO)C(=O)C2CCN1CC2 (stereo not given) [PRIMA-1MET] + Nc1ncn([C@H]2C[C@H](O)[C@@H](CO)O2)c(=O)n1 [Decitabine] (partner 2 µM)
relative viability (201T; first compound 0.2 µM): 0.921
relative viability (201T; first compound 0.6325 µM): 0.607
relative viability (201T; first compound 2 µM): 0.762
relative viability (201T; first compound 6.325 µM): 0.87
relative viability (201T; first compound 20 µM): 0.896
relative viability (EPLC-272H; first compound 0.2 µM): 0.353
relative viability (EPLC-272H; first compound 0.6325 µM): 0.306
relative viability (EPLC-272H; first compound 2 µM): 0.323
relative viability (EPLC-272H; first compound 6.325 µM): 0.392
relative viability (EPLC-272H; first compound 20 µM): 0.272
relative viability (H3255; first compound 0.2 µM): 0.553
relative viability (H3255; first compound 0.6325 µM): 0.54
relative viability (H3255; first compound 2 µM): 0.524
relative viability (H3255; first compound 6.325 µM): 0.695
relative viability (H3255; first compound 20 µM): 0.522
relative viability (LCLC-103H; first compound 0.2 µM): 0.757
relative viability (LCLC-103H; first compound 0.6325 µM): 0.55
relative viability (LCLC-103H; first compound 2 µM): 0.685
relative viability (LCLC-103H; first compound 6.325 µM): 0.78
relative viability (LCLC-103H; first compound 20 µM): 0.716
relative viability (LOU-NH91; first compound 0.2 µM): 0.89
relative viability (LOU-NH91; first compound 0.6325 µM): 0.794
relative viability (LOU-NH91; first compound 2 µM): 0.806
relative viability (LOU-NH91; first compound 6.325 µM): 0.828
relative viability (LOU-NH91; first compound 20 µM): 0.613
relative viability (NCI-H1355; first compound 0.2 µM): 0.366
relative viability (NCI-H1355; first compound 0.6325 µM): 0.347
relative viability (NCI-H1355; first compound 2 µM): 0.338
relative viability (NCI-H1355; first compound 6.325 µM): 0.329
relative viability (NCI-H1355; first compound 20 µM): 0.323
relative viability (NCI-H1651; first compound 0.2 µM): 0.616
relative viability (NCI-H1651; first compound 0.6325 µM): 0.178
relative viability (NCI-H1651; first compound 2 µM): 0.585
relative viability (NCI-H1651; first compound 6.325 µM): 0.666
relative viability (NCI-H1651; first compound 20 µM): 0.6
relative viability (NCI-H1666; first compound 0.2 µM): 0.637
relative viability (NCI-H1666; first compound 0.6325 µM): 0.492
relative viability (NCI-H1666; first compound 2 µM): 0.645
relative viability (NCI-H1666; first compound 6.325 µM): 0.724
relative viability (NCI-H1666; first compound 20 µM): 0.756
relative viability (NCI-H1734; first compound 0.2 µM): 0.481
relative viability (NCI-H1734; first compound 0.6325 µM): 0.289
relative viability (NCI-H1734; first compound 2 µM): 0.456
relative viability (NCI-H1734; first compound 6.325 µM): 0.474
relative viability (NCI-H1734; first compound 20 µM): 0.0575
relative viability (NCI-H1792; first compound 0.2 µM): 0.523
relative viability (NCI-H1792; first compound 6.325 µM): 0.515
relative viability (NCI-H1792; first compound 20 µM): 0.434
relative viability (NCI-H1793; first compound 0.2 µM): 0.484
relative viability (NCI-H1793; first compound 0.6325 µM): 0.333
relative viability (NCI-H1793; first compound 6.325 µM): 0.489
relative viability (NCI-H1793; first compound 20 µM): 0.424
relative viability (NCI-H1915; first compound 0.2 µM): 0.278
relative viability (NCI-H1915; first compound 0.6325 µM): 0.234
relative viability (NCI-H1915; first compound 2 µM): 0.252
relative viability (NCI-H1915; first compound 6.325 µM): 0.256
relative viability (NCI-H1915; first compound 20 µM): 0.27
relative viability (NCI-H1944; first compound 0.2 µM): 0.436
relative viability (NCI-H1944; first compound 0.6325 µM): 0.35
relative viability (NCI-H1944; first compound 2 µM): 0.408
relative viability (NCI-H1944; first compound 6.325 µM): 0.431
relative viability (NCI-H1944; first compound 20 µM): 0.446
relative viability (NCI-H1975; first compound 0.2 µM): 0.389
relative viability (NCI-H1975; first compound 0.6325 µM): 0.329
relative viability (NCI-H1975; first compound 2 µM): 0.343
relative viability (NCI-H1975; first compound 6.325 µM): 0.431
relative viability (NCI-H1975; first compound 20 µM): 0.371
relative viability (NCI-H2023; first compound 0.2 µM): 0.211
relative viability (NCI-H2023; first compound 0.6325 µM): 0.128
relative viability (NCI-H2023; first compound 2 µM): 0.235
relative viability (NCI-H2023; first compound 6.325 µM): 0.216
relative viability (NCI-H2023; first compound 20 µM): 0.209
relative viability (NCI-H2342; first compound 0.2 µM): 0.671
relative viability (NCI-H2342; first compound 0.6325 µM): 0.681
relative viability (NCI-H2342; first compound 6.325 µM): 0.658
relative viability (NCI-H2342; first compound 20 µM): 0.684
relative viability (NCI-H2405; first compound 0.2 µM): 0.593
relative viability (NCI-H2405; first compound 0.6325 µM): 0.508
relative viability (NCI-H2405; first compound 6.325 µM): 0.645
relative viability (NCI-H2405; first compound 20 µM): 0.296
relative viability (NCI-H441; first compound 0.2 µM): 0.232
relative viability (NCI-H441; first compound 0.6325 µM): 0.21
relative viability (NCI-H441; first compound 2 µM): 0.22
relative viability (NCI-H441; first compound 6.325 µM): 0.23
relative viability (NCI-H441; first compound 20 µM): 0.169
relative viability (NCI-H647; first compound 0.2 µM): 0.403
relative viability (NCI-H647; first compound 0.6325 µM): 0.236
relative viability (NCI-H647; first compound 2 µM): 0.353
relative viability (NCI-H647; first compound 6.325 µM): 0.333
relative viability (NCI-H647; first compound 20 µM): 0.39
relative viability (RERF-LC-KJ; first compound 0.2 µM): 0.753
relative viability (RERF-LC-KJ; first compound 0.6325 µM): 0.617
relative viability (RERF-LC-KJ; first compound 2 µM): 0.718
relative viability (RERF-LC-KJ; first compound 6.325 µM): 0.69
relative viability (RERF-LC-KJ; first compound 20 µM): 0.595
relative viability (SK-LU-1; first compound 0.2 µM): 0.523
relative viability (SK-LU-1; first compound 0.6325 µM): 0.513
relative viability (SK-LU-1; first compound 2 µM): 0.503
relative viability (SK-LU-1; first compound 6.325 µM): 0.707
relative viability (SK-LU-1; first compound 20 µM): 0.593
relative viability (UMC-11; first compound 0.2 µM): 0.675
relative viability (UMC-11; first compound 0.6325 µM): 0.477
relative viability (UMC-11; first compound 2 µM): 0.399
relative viability (UMC-11; first compound 6.325 µM): 0.668
relative viability (UMC-11; first compound 20 µM): 0.46

— the supplement of paper PMC10307832
